Measured values from patent US12479827B2, “Heteroaromatic carboxamide derivatives as plasma kallikrein inhibitors” (Boehringer Ingelheim International GmbH, priority 2020, dated 2025).

target: T1, Human PKK (Homo sapiens, UniProt P03952); assay: Inhibition of PKK using an endpoint assay (human PKK); assay type: biochemical; details: fluorogenic substrate H-Pro-Phe-Arg-AMC, 1 h room temperature, method names human or rat PKK, table does not say which
T1 construct: purchased Enzyme Research Laboratories
T1 sequence (P03952 20-390 limits assumed): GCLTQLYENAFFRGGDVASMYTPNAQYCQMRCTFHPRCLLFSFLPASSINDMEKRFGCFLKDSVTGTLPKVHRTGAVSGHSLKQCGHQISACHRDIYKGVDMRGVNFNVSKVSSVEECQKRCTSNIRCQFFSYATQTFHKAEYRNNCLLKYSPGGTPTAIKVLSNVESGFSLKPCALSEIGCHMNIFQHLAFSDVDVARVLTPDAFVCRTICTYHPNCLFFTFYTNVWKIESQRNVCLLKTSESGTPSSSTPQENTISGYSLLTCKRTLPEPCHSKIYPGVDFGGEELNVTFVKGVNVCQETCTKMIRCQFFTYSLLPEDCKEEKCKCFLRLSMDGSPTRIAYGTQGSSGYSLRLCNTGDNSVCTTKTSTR
T1 sequence (P03952 391-638 limits assumed): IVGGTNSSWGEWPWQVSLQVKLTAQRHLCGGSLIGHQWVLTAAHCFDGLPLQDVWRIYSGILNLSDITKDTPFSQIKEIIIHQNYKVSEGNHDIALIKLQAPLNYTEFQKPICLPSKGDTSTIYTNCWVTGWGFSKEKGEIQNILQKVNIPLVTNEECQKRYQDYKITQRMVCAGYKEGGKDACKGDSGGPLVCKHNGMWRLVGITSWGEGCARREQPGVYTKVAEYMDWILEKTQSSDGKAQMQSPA
Protocol: The ability of compounds of formula (I) to inhibit plasma kallikrein (PKK), Factor XIIa (FXIIa), Factor XIa (FXIa), Factor Xa (FXa), Factor IIa (alpha-thrombin; FIIa), plasmin, trypsin, tissue kallikrein 1 (TK1), Factor VIIa (FVIIa), or FVIIa complexed with Tissue Factor, phospholipids and CaCl2 (FVIIa/TF/PL/CaCl2) is determined using the following biochemical assays in assay buffer (100 mM Tris, 150 mM NaCL, adjusted to a pH of 7.8 with HCl, and containing 0.1% (w/v) BSA and 0.05% (v/v) Tween20) in the presence of 1% (v/v) DMSO:
Subsequently, PPACK II (Calbiochem) is added as a stop solution to achieve a final concentration of 1 μM and fluorescence is measured using an Envision Reader (PerkinElmer) with the wavelength excitation setting of 355 nm and the wavelength emission setting of 460 nm.

Row | SMILES | IC50 [nM]
1 | Cc1cc(Cn2cc(C(=O)N[C@@H]3CCc4c3ncn4C)cn2)c(C)nc1N1CC2CC2C1 (stereo partly drawn) [Example 130, 1-[(6-{3-Azabicyclo[3.1.0]hexan-3-yl}-2,5-dimethylpyridin-3-yl)methyl]-N-[(4R)-1-methyl-1H,4H,5H,6H-cyclopenta[d]imidazol-4-yl]-1H-pyrazole-4-carboxamide] | 20
2 | CC(CO)c1nc(N2CC3CC3C2)ccc1Cn1cc(C(=O)N[C@@H]2CCc3c2ncn3C)cn1 (stereo partly drawn) [Example 59, 1-[(6-{3-Azabicyclo[3.1.0]hexan-3-yl}-2-(1-hydroxypropan-2-yl)pyridin-3-yl)methyl]-N-[(4R)-1-methyl-1H,4H,5H,6H-cyclopenta[d]imidazol-4-yl]-1H-pyrazole-4-carboxamide] | 0.4
3 | Cc1nc(N2CC3CC(C2)O3)ncc1Cn1cc(C(=O)N[C@@H]2CCc3c2ncn3C)cn1 [Example 231, N-[(4R)-1-Methyl-1H,4H,5H,6H-cyclopenta[d]imidazol-4-yl]-1-[(4-methyl-2-{6-oxa-3-azabicyclo[3.1.1]heptan-3-yl}pyrimidin-5-yl)methyl]-1H-pyrazole-4-carboxamide] | 223
4 | COC1C2CC1CN(c1ncc(Cn3cc(C(=O)N[C@@H]4CCc5c4ncn5C)cn3)c(C)n1)C2 (stereo partly drawn) [Example 233, 1-[(2-{6-Methoxy-3-azabicyclo[3.1.1]heptan-3-yl}-4-methylpyrimidin-5-yl)methyl]-N-[(4R)-1-methyl-1H,4H,5H,6H-cyclopenta[d]imidazol-4-yl]-1H-pyrazole-4-carboxamide] | 81.4
5 | Cn1cnc2c1CC[C@H]2NC(=O)c1cc(Cc2ccc(N3CC4(CC4)C3)nc2Cl)no1 [Example 157, 3-[(6-{5-Azaspiro[2.3]hexan-5-yl}-2-chloropyridin-3-yl)methyl]-N-[(4R)-1-methyl-1H,4H,5H,6H-cyclopenta[d]imidazol-4-yl]-1,2-oxazole-5-carboxamide] | 1.2
6 | CO[C@H]1[C@@H]2CC[C@H]1CN(c1ncc(Cn3cc(C(=O)N[C@@H]4CCc5c4ncn5C)cn3)c(C)n1)C2 [Example 234, 1-({2-[(1R,5S,8R)-8-Methoxy-3-azabicyclo[3.2.1]octan-3-yl]-4-methylpyrimidin-5-yl}methyl)-N-[(4R)-1-methyl-1H,4H,5H,6H-cyclopenta[d]imidazol-4-yl]-1H-pyrazole-4-carboxamide] | 350
7 | Cc1nc(N2CCC3CC3C2)ncc1Cn1cc(C(=O)N[C@@H]2CCc3c2ncn3C)cn1 (stereo partly drawn) [Example 227, 1-[(2-{3-Azabicyclo[4.1.0]heptan-3-yl]-4-methylpyrimidin-5-yl)methyl]-N-[(4R)-1-methyl-1H,4H,5H,6H-cyclopenta[d]imidazol-4-yl]-1H-pyrazole-4-carboxamide] | 45.3
8 | Cc1nc(N2CC3(CCC3)C2)ncc1Cn1cc(C(=O)N[C@@H]2CCc3c2ncn3C)cn1 [Example 226, 1-[(2-{2-Azaspiro[3.3]heptan-2-yl}-4-methylpyrimidin-5-yl)methyl]-N-[(4R)-1-methyl-1H,4H,5H,6H-cyclopenta[d]imidazol-4-yl]-1H-pyrazole-4-carboxamide] | 35.7
9 | Cn1cnc2c1CC[C@H]2NC(=O)c1cnc(Cc2cc(F)c(N3CC4CC4C3)c(F)c2)[nH]1 (stereo partly drawn) [Example 192, 2-[(4-{3-azabicyclo[3.1.0]hexan-3-yl}-3,5-difluorophenyl)methyl]-N-[(4R)-1-methyl-1H,4H,5H,6H-cyclopenta[d]imidazol-4-yl]-1H-imidazole-4-carboxamide] | 1890
10 | Cn1cnc2c1CC[C@H]2NC(=O)c1cnn(Cc2cc(F)c(N3CC4CC4C3)c(F)c2)c1 (stereo partly drawn) [Example 191, 1-[(4-{3-Azabicyclo[3.1.0]hexan-3-yl}-3,5-difluorophenyl)methyl]-N-[(4R)-1-methyl-1H,4H,5H,6H-cyclopenta[d]imidazol-4-yl]-1H-pyrazole-4-carboxamide] | 169
11 | Cn1cnc2c1CC[C@H]2NC(=O)c1cnn(Cc2cc(F)c(N3CC4CC4C3)c(C#N)c2)c1 (stereo partly drawn) [Example 195, 1-[(4-{3-azabicyclo[3.1.0]hexan-3-yl}-3-cyano-5-fluorophenyl)methyl]-N-[(4R)-1-methyl-1H,4H,5H,6H-cyclopenta[d]imidazol-4-yl]-1H-pyrazole-4-carboxamide] | 20.3

Other lines, results leading:

Row | IC50 [nM] | SMILES
12 | 3.2 | Cn1cnc2c1CC[C@H]2NC(=O)c1cnn(Cc2ccc(N3CC4CC4C3)nc2F)c1 (stereo partly drawn) [Example 104, 1-[(6-{3-Azabicyclo[3.1.0]hexan-3-yl}-2-fluoropyridin-3-yl)methyl]-N-[(4R)-1-methyl-1H,4H,5H,6H-cyclopenta[d]imidazol-4-yl]-1H-pyrazole-4-carboxamide]
13 | 9.8 | Cc1cc(N2CC3CC3C2)ncc1Cn1cnc(C(=O)N[C@@H]2CCc3c2ncn3C)c1 (stereo partly drawn) [Example 106, 1-[(6-{3-Azabicyclo[3.1.0]hexan-3-yl}-4-methylpyridin-3-yl)methyl]-N-[(4R)-1-methyl-1H,4H,5H,6H-cyclopenta[d]imidazol-4-yl]-1H-imidazole-4-carboxamide]
14 | 8.6 | Cc1cc(N2CC3C(C2)C3(F)F)nc(C)c1Cn1cnc(C(=O)N[C@@H]2CCc3c2ncn3C)c1 (stereo partly drawn) [Example 111, 1-[(6-{6,6-Difluoro-3-azabicyclo[3.1.0]hexan-3-yl}-2,4-dimethylpyridin-3-yl)methyl]-N-[(4R)-1-methyl-1H,4H,5H,6H-cyclopenta[d]imidazol-4-yl]-1H-imidazole-4-carboxamide]
15 | 2.2 | Cn1cnc2c1CC[C@H]2NC(=O)c1cn(Cc2ccc(N3CC4C(C3)C4(F)F)cn2)nn1 (stereo partly drawn) [Example 138, 1-[(5-{6,6-Difluoro-3-azabicyclo[3.1.0]hexan-3-yl}pyridin-2-yl)methyl]-N-[(4R)-1-methyl-1H,4H,5H,6H-cyclopenta[d]imidazol-4-yl]-1H-1,2,3-triazole-4-carboxamide]
16 | 3.4 | Cn1cnc2c1CC[C@H]2NC(=O)c1cn(Cc2ccc(N3CC4CC4C3)nc2OC(F)(F)F)cn1 (stereo partly drawn) [Example 38, 1-[(6-{3-Azabicyclo[3.1.0]hexan-3-yl}-2-(trifluoromethoxy)-pyridin-3-yl)methyl]-N-[(4R)-1-methyl-1H,4H,5H,6H-cyclopenta[d]imidazol-4-yl]-1H-imidazole-4-carboxamide]
17 | 302 | Cc1nc(N2C[C@@H]3[C@H](C#N)[C@@H]3C2)ncc1Cn1cc(C(=O)N[C@@H]2CCc3c2ncn3C)cn1 [Example 224, 1-({2-[(1R,5S,6S)-6-Cyano-3-azabicyclo[3.1.0]Lhexan-3-yl]-4-methylpyrimidin-5-yl}methyl)-N-[(4R)-1-methyl-1H,4H,5H,6H-cyclopenta[d]imidazol-4-yl]-1H-pyrazole-4-carboxamide]
18 | 3.1 | Cn1cnc2c1CC[C@H]2NC(=O)c1cn(Cc2ccc(N3CC4(CC4)C3)nc2CO)nn1 [Example 61, 1-[(6-{5-Azaspiro[2.3]hexan-5-yl}-2-(hydroxymethyl)-pyridin-3-yl)methyl]-N-[(4R)-1-methyl-1H,4H,5H,6H-cyclo-penta[d]imidazol-4-yl]-1H-1,2,3-triazole-4-carboxamide]
19 | 18.8 | Cn1cnc2c1CC[C@H]2NC(=O)c1cnn(Cc2ccc(N3CC4CC4C3)nn2)c1 (stereo partly drawn) [Example 60, 1-[(6-{3-Azabicyclo[3.1.0]hexan-3-yl}pyridazin-3-yl)methyl]-N-[(4R)-1-methyl-1H,4H,5H,6H-cyclopenta[d]imidazol-4-yl]-1H-pyrazole-4-carboxamide]

target: T2, PKK in kaolin activated human platelet poor plasma (Homo sapiens, UniProt P03952); assay: Inhibition of PKK in kaolin activated human PPP; assay type: biochemical; details: 25-750 μg/mL kaolin, global fit, text b200 calls the values IC90;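 note: readout is the rate of fluorogenic substrate cleavage in rfu per min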
T2 construct: Platelet poor plasma (PPP) obtained from human wholeblood; from tissue
T2 sequence (P03952 391-638 limits assumed): as above
T2 sequence (P03952 20-390 limits assumed): as the sequence (P03952 20-390 limits assumed) above
Protocol: Platelet poor plasma (PPP) obtained from human wholeblood, anticoagulated with Na-Citrate, is incubated with various concentrations of the test compound together with either 25, 75, 250, or 750 μg/mL kaolin in assay buffer for 20 min at 37° C. such that for each kaolin dose used a concentration response is obtained for the test compound.

Row | IC50 [nM] | SMILES
20 | 706 | Cn1cnc2c1CC[C@H]2NC(=O)c1cnn(Cc2ccc(N3CC4CC4C3)nc2F)c1 (stereo partly drawn) [Example 104, 1-[(6-{3-Azabicyclo[3.1.0]hexan-3-yl}-2-fluoropyridin-3-yl)methyl]-N-[(4R)-1-methyl-1H,4H,5H,6H-cyclopenta[d]imidazol-4-yl]-1H-pyrazole-4-carboxamide]
21 | 1970 | Cc1cc(N2CC3CC3C2)ncc1Cn1cnc(C(=O)N[C@@H]2CCc3c2ncn3C)c1 (stereo partly drawn) [Example 106, 1-[(6-{3-Azabicyclo[3.1.0]hexan-3-yl}-4-methylpyridin-3-yl)methyl]-N-[(4R)-1-methyl-1H,4H,5H,6H-cyclopenta[d]imidazol-4-yl]-1H-imidazole-4-carboxamide]
22 | 4150 | Cc1cc(N2CC3C(C2)C3(F)F)nc(C)c1Cn1cnc(C(=O)N[C@@H]2CCc3c2ncn3C)c1 (stereo partly drawn) [Example 111, 1-[(6-{6,6-Difluoro-3-azabicyclo[3.1.0]hexan-3-yl}-2,4-dimethylpyridin-3-yl)methyl]-N-[(4R)-1-methyl-1H,4H,5H,6H-cyclopenta[d]imidazol-4-yl]-1H-imidazole-4-carboxamide]
